# Data from US11931374B2, “Adenosine receptor modulators for the treatment of circadian rhythm disorders” (OXFORD UNIVERSITY INNOVATION LIMITED, priority 2016, dated 2024).
# Experiments:
# Per1/2 [1] = assay: Sleep deprivation, Per1/2 within the cortex; type: in vivo; conditions: data not shown
# Per2::Luc U2OS cells = assay: Per2::Luc cell based circadian assay; conditions: for circadian period length: Per2::Luc U2OS cells, dose response
# Experimental: U2OS cells stably transfected with a Per2::Luc reporter were cultured in DMEM supplemented with 10% FBS. For siRNA- and drug-based experiments, cells were seeded at 5,000 per well into white 384 well plates and transfected with 20 nM siRNA the next day. 2 days later, the cells were synchronized with 100 nM dexamethasone and the medium was replaced with phenol-red free DMEM supplemented with B-27 and 100 µM luciferin potassium salt, requisite drugs formulated in DMSO as a 1000× stock was added, and then sealed. Per2::Luc rhythms were recorded from a BMG Labtech Fluostar Omega plate reader maintained at 36° C. and readings taken from each well every hour. Data were then analysed using either Multicycle or Brass rhythm analysis software.
# Period2::Luciferase (Per2::Luc) stable U2OS transfects were cultured, as described above. A Greiner Bio-One 384 Well Plate (Polystyrene, F-bottom), was then seeded at 6000 cells per 50 μl well. Following a 24 hour period, the cells were treated with 0.1% dexamethasone, a glucocorticoid hormone analogue known to reset intracellular circadian rhythms, for 1 hour. Subsequently, the dexamethasone-containing medium was removed, the cells were washed with PBS and luciferin and test drug containing medium was added. The cells were then assayed for luminescence over a period of 96 hours in the BMG FLUOstar OPTIMA Microplate Reader to observe the periodicity and amplitude of the luminescence values.
# [2] = system: STAR-PROM plasmid library; assay: STAR-PROM transcription factor screening in U2OS cells; type: cell-based; conditions: siFos
# Experimental: This was conducted as previously reported in Gerber et al., Cell. […] Briefly, U2OS cells were cultured in 6-well plates and transfected with 1 ug of the STAR-PROM plasmid library (library structure as in above reference). RNA was extracted at set time points and sequenced for the barcoded luciferase constructs and analysed with Galaxy (https://use.galaxy.org).
# C57Bl/6 mice [3] = assay: Phase shifting of circadian activity by drug (running wheel); type: in vivo; conditions: administered at CT22, absence of a light pulse
# Experimental: Animals were housed under a reversed 12:12 LD cycle (400 lux from white LED lamps) with food and water ad libitum. For phase-shifting studies, C57Bl/6 mice were maintained on running wheels in light tight chambers on a 12:12 LD cycle (400 lux from white LED lamps) and injected with drug at the indicated time points. The drugs were formulated in a vehicle consisting of 5% Koliphor-HS15 (Sigma-Aldrich, UK) 5% Cyclodextran (Sigma-Aldrich, UK) in 0.9% saline. This vehicle was warmed to 37° C. and the indicated drugs kept at a 100× stock in DMSO and mixed at the appropriate concentration to be administered at approximately 300 ul intraperitoneal injection (n=6 to 10). Where the time point of injection was in the dark, the procedure was conducted under dim red light. Where measuring phase-shifting, the mice were then placed in DD and allowed to free run for 14 days in DD, running wheel activity data was collected and analysed on Clocklab (Actimetrics, Wilmette, IL). For jet-lag studies, mice were maintained on running wheels in light tight chambers on a 12:12 LD cycle (400 lux from white LED lamps) and injected with drugs as above at ZT6 and the LD cycle was shifted 6 hours in advance. The onset of activity on each day was used to measure phase relative to the LD cycle.
# Phase Shifting: C57Bl/6 male mice (80 days or older) were maintained on running wheels in light tight chambers on a 12:12 LD cycle (100 lux from white LED lamps) on stable entrainment, were released in complete darkness. At set times as indicated in the experiments, the animals received an intraperitoneal injection (300 ul) of drug constituted in sterile saline with 5% Cyclodextrin (Sigma-Aldrich) and 5% Koliphor (Sigma-Aldrich) and then allowed to free run in DD, running wheel activity data were collected and analysed on Clocklab (Actimetrics, Wilmette, IL).
# Per2 = Per2 mRNA levels in U2OS cells by qPCR; type: cell-based; conditions: U2OS cells, qPCR, concentration not given
# Experimental: (§1) Total RNA was extracted using the microRNeasy column method (Qiagen, Hilden, Germany). Quality and quantity of RNA were measured using an Agilent Bioanalyzer and a Nanodrop1000 (Thermo Fisher Scientific, Waltham, MA USA), respectively.
# (§2) RNA samples were prepared as described for microarray hybridisation. cDNA was synthesized with a qScript cDNA synthesis kit (Quanta Biosciences, Gaithersburg, MD), and quantitative PCR (qPCR) was conducted with Sybr green I and an SDS7700 thermal cycler (Applied Biosystems, Foster City, CA). Relative quantification of transcript levels was done as described previously (Peirson et al., Nucleic Acids Res. 2003 Jul. 15; 31(14):e73.). The geometric mean of a minimum of three housekeeping genes was used for normalization (Gapdh, ActB, GusB and Rps9 for example).
# (§3) Cells from the U2OS (HTB-96) line were obtained, tested and identified. The cells were cultured in T-75 flasks, in Dulbecco's modified Eagle medium (DMEM) supplemented with 10% foetal bovine serum (FBS) and 1% penicillin-streptomycin (P/S) at 37° C. in a humidified atmosphere at 5% CO2. The cells were subcultured every 2 to 4 days in a 1:2 to 1:6 ratio, in accordance with the ATCC recommendations. The cells were counted using a haemocytometer, and their viability in a culture was maintained at above 95%, measured with a Presto Blue exclusion assay according to the manufacturer's specifications. Cells were transfected with siRNAs (typically at 50 nM concentrations, sequences as previously listed), the CRE::Luc (pGL4.29[luc2P/CRE/Hygro] Vector, encoding Luc2P […] under the control of a strong cAMP response element (CRE) promoter containing 3 CRE elements within its sequence; Promega) reporter vector or cAMP-GLOSensor plasmid (Promega) as per manufacturer's instructions using either Lipofectamine RNAimax (Invitrogen) or Lipofectamine3000 (Invitrogen).
# C57Bl/6 mice [4] = assay: Phase shifting of circadian activity in response to a light pulse with drug; type: in vivo; conditions: 1 mg/kg intraperitoneal before 30 min 400 lux light pulse at CT22
# Experimental: Animals were maintained in a 12 h light (white) 12 h dark (grey) cycle and vehicle was administered just before a 30 min 400 lux light pulse (white bar) at time CT 22 (or 10 hours after lights off). All light cues were then removed to allow the animals free running clock to express. A gap in the lines on the day after the light pulse was administered indicates a phase shift.
# Animals were maintained in a 12 h light (white) 12 h dark (grey) cycle and IB-MECA (1 mg/kg) was administered just before a 30 min 400 lux light pulse (white bar) at time CT 22 (or 10 hours after lights off).
# Animals were housed under a reversed 12:12 LD cycle (400 lux from white LED lamps) with food and water ad libitum. For phase-shifting studies, C57Bl/6 mice were maintained on running wheels in light tight chambers on a 12:12 LD cycle (400 lux from white LED lamps) and injected with drug at the indicated time points. The drugs were formulated in a vehicle consisting of 5% Koliphor-HS15 (Sigma-Aldrich, UK) 5% Cyclodextran (Sigma-Aldrich, UK) in 0.9% saline. […] Where measuring phase-shifting, the mice were then placed in DD and allowed to free run for 14 days in DD, running wheel activity data was collected and analysed on Clocklab (Actimetrics, Wilmette, IL). […]
# CRE::Luc reporter = assay: CRE-Luc luciferase assay in U2OS cells; type: cell-based
# Experimental: At 60-80% confluence and >90% viability, the U2OS cells in the T-75 flask were washed twice with 6 ml phosphate-buffered saline (PBS) and subsequently treated with 4 ml of TrypLE™ Express trypsin replacement solution for 10 minutes. A Greiner Bio-One 96 Well Plate (white, TC treated), was then seeded at 8000 cells per well. Following 24 hours, the cells were transfected at 50-70% confluency with CRE-luc Vector generated in-house with Viafect transfection reagent at 1:4 ratio (100 ng DNA/well) following manufacturers recommendations.
# 24 hours after transfection, the medium in the 96 well plate was changed to a serum-free medium with 1 mM luciferin. The cells were then incubated in serum starvation conditions for 6-8 hours, this was optimised to yield the greatest signal strength and lowest noise when assayed with forskolin control. Following the incubation period, the CRE-Luc U2OS cells were treated with the appropriate drug and their luminescence values were measured after 6 hours in the BMG FLUOstar OPTIMA Microplate Reader. […] Unless stated otherwise, forskolin was used as a positive control, and 1% DMSO was used as a negative control.
# Per1 = Per1 mRNA levels in U2OS cells by qPCR; type: cell-based; conditions: U2OS cells, qPCR, concentration not given
# Experimental: as §1, §2, §3
# [5] = system: intracellular levels of cAMP; assay: cAMP GloSensor assay in U2OS cells; type: cell-based
# Experimental: The GloSensor™ cAMP Assay (Promega) was used for detecting changes in the intracellular levels of cAMP. Initially, a Greiner Bio-One 96 Well Plate (white, TC treated) was seeded at 8000 cells per 100 μl well, as described above. After 24 hours, the cells were transfected with the pGloSensor™ cAMP Plasmid using the Viafect transfection reagent as above. Between 24 and 48 hours later, allowing for the accumulation of the biosensor, the medium in the 96 well plate was changed to C02-Independent Medium supplemented with GlutaMAX™ (Life Technologies), 10% fetal bovine serum and 2% GloSensor™ cAMP Reagent. The plate was then stood for 2 hours at room temperature to equilibrate. Following the incubation period, the cells were treated with relevant drugs and their luminescence values were measured after 20 minutes in the BMG FLUOstar OPTIMA Microplate Reader, with forskolin as a positive control, and DMSO as a negative control.
# Per1/2 [6] = assay: Sleep deprivation, Per1/2 expression within the SCN; type: in vivo; conditions: sleep deprivation decreases Per1/2 expression
structure (smiles),measurement,setting,value
CC#C[C@]1(O)CC[C@H]2[C@@H]3CCC4=CC(=O)CCC4=C3[C@@H](c3ccc(N(C)C)cc3)C[C@@]21C [mifepristone],sleep deprivation-induced increase of Per1/2 within the cortex,Per1/2 [1],blunted this response
"Nc1nc(NCCc2ccc(O)cc2)nc2nc(-c3ccco3)nn12 [ZM241385, 4-(2-(7-amino-2-(furan-2-yl)-[1,2,4]triazolo[1,5-a][1,3,5]triazin-5-ylamino)ethyl)phenol]",circadian period length,Per2::Luc U2OS cells,increased circadian period length in a dose dependent manner
"Nc1nc2ccc(Cl)cc2c2nc(-c3ccco3)nn12 [CGS15943, 9-chloro-2-(furan-2-yl)-[1,2,4]triazolo[1,5-c]quinazolin-5-amine]",period lengthening effect after knockdown of adenosine receptors,"Per2::Luc U2OS cells; A1, A2A, A2B adenosine receptors in U2OS cells knocked down using siRNA",lost
same,response of clone3 after siRNA-mediated silencing of Fos,[2],significantly reduced
"CCn1c(=O)c2c(nc(/C=C/c3ccc(OC)c(OC)c3)n2C)n(CC)c1=O [Istradefylline, 8-[(E)-2-(3,4-dimethoxyphenyl)vinyl]-1,3-diethyl-7-methyl-3,7-dihydro-1H-purine-2,6-dione]",circadian period length,Per2::Luc U2OS cells,increased circadian period length in a dose dependent manner
"CNC(=O)[C@H]1O[C@@H](n2cnc3c(NCc4cccc(I)c4)ncnc32)[C@H](O)[C@@H]1O [IB-MECA, 1-Deoxy-1-[6-[((3-Iodophenyl)methyl)amino]-9H-purin-9-yl]-N-methyl-β-D-ribofuranuronamide]",phase shift of circadian activity,C57Bl/6 mice [3],elicited a phase delay
same,circadian period length,Per2::Luc U2OS cells,dose-dependent period length increases
same,amplitude of the cellular clock,"Per2::Luc U2OS cells; Per2::Luciferase construct, U2OS cells",increases in period and amplitude
same,Per2 mRNA levels / expression,Per2,elevated
same,phase advance induced by light pulse,C57Bl/6 mice [4],phase advance was lost
same,CREB-driven transcription (CRE::Luc reporter),CRE::Luc reporter,activation
same,Per1 mRNA levels / expression,Per1,elevated
same,cAMP levels,[5],concurrent increase
"O=C(Cc1ccccc1)Nc1nc2ccc(Cl)cc2c2nc(-c3ccco3)nn12 [MRS1220, 9-Chloro-2-(2-furanyl)-5-((phenylacetyl)amino)-[1,2,4]triazolo[1,5-c]quinazoline]",circadian period length,Per2::Luc U2OS cells,increased circadian period length in a dose dependent manner
"CCNC(=O)[C@H]1O[C@@H](n2cnc3c(N)nc(NCCc4ccc(CCC(=O)O)cc4)nc32)[C@H](O)[C@@H]1O.Cl [CGS21680, 3-[4-[2-[[6-amino-9-[(2R,3R,4S,5S)-5-(ethylcarbamoyl)-3,4-dihydroxy-oxolan-2-yl]purin-2-yl]amino]ethyl]phenyl]propanoic acid]",Per1/2 expression within the SCN,Per1/2 [6],increased Per1/2 expression
